Source: patent US11077090B2, “Compounds and compositions and uses thereof” (Sunovion Pharmaceuticals Inc., priority 2016, dated 2021)
Where two headings read alike, the source gives them in different places.

Tested on: compound-treated mice
Experiment: Neuropharmacological assay (SmartCube): behavioral activity signature and minimal effective dose
Assay type: in vivo
Details: for minimal effective dose: Mus musculus, ip; for AD: ADHD (probability of activity signature) / AG: analgesic (probability of activity signature) / AX: anxiolytic (probability of activity signature) / CE: cognitive enhancer (probability of activity signature) / DP: anti-depressant (probability of activity signature) / MS: mood stabilizer (probability of activity signature) / PS: anti-psychotic (probability of activity signature) / SD: sedative hypnotic (probability of activity signature) / UN: uncharacterized CNS activity (probability of activity signature): i.p. 15 min before test, most efficacious dose(s)
Excerpt: Neurosci. 2011 Sep. 9; 5:103 (doi: 10.3389/fnins.2011.00103) (“Roberds”). As reported in Roberds, because psychiatric diseases generally result from disorders of cell-cell communication or circuitry, intact systems are useful in detecting improvement in disease-relevant endpoints. These endpoints are typically behavioral in nature, often requiring human observation and interpretation. To facilitate testing of multiple compounds for behavioral effects relevant to psychiatric disease, PsychoGenics, Inc. (Tarrytown, N.Y., “PGI”) developed SmartCube™, an automated system in which behaviors of compound-treated mice are captured by digital video and analyzed with computer algorithms. (D. Brunner et al., Drug Discov. Today 2002, 7:S107-S112). PGI Analytical Systems uses data from SmartCube™ to compare the behavioral signature of a test compound to a database of behavioral signatures obtained using a large set of diverse reference compounds. (The composition of the database as well as validation of the method is further described in Roberds). In this way, the neuropharmacological effects of a test compound can be predicted by similarity to major classes of compounds, such as antipsychotics, anxiolytics and antidepressants.
The SmartCube™ system produces an activity signature indicating the probability that the activity of the test compound at the administered dose matches a given class of neuropharmacological agents. (See, e.g., Roberds, FIGS. 2 and 3). The test compound is simultaneously compared against multiple classes of agents; thus, a separate probability is generated for each behavioral effect measured (e.g., anxiolytic activity, analgesic activity, etc.). In the table below, these probabilities are reported for each behavioral effect measured as follows:
where LOQ is the limit of quantification.
Provided compounds were dissolved in a mixture of Pharmasolve™ (N-methyl-2-pyrrolidone), polyethylene glycol and propylene glycol, and were injected i.p. 15 min. before the behavioral test. For each compound, injections were administered at 3 different doses. For each behavioral effect measured, results for the most efficacious dose(s) are presented. In the table below, DP: anti-depressant; AX: anxiolytic; SD: sedative hypnotic; PS: anti-psychotic; MS: mood stabilizer; AD: ADHD; CE: cognitive enhancer; AG: analgesic; UN: uncharacterized CNS activity.
The potency of many of the compounds in the table was also determined in the SmartCube™ system. Test compounds were routinely examined at dose levels of 0.3, 1, 3, 10 and 30 mg per kg (mpk), although the dose range was increased or decreased if necessary to obtain a full dose response curve. A compound's minimal effective dose (MED) is a measure of the compounds potency. The MED was defined as the dose (in mpk) having 50% or more total activity in SmartCube.

[1] = MED = dose having 50% or more total activity, read-out: Potency: minimal effective dose (MED)
[2] = MED = dose having 50% or more total activity, read-out: Potency: minimal effective dose (MED), binned

Cl.NC1CCOCc2cccc(Cl)c21 (stereo not shown) [Example 41]
minimal effective dose [1]: 10 to 30 mg/kg
AD: ADHD (probability of activity signature): + (LOQ ≤ + <5%)
AG: analgesic (probability of activity signature): ++ (5% ≤ ++ <25%)
AX: anxiolytic (probability of activity signature): ++ (5% ≤ ++ <25%)
CE: cognitive enhancer (probability of activity signature): ++ (5% ≤ ++ <25%)
DP: anti-depressant (probability of activity signature): ++ (5% ≤ ++ <25%)
MS: mood stabilizer (probability of activity signature): + (LOQ ≤ + <5%)
PS: anti-psychotic (probability of activity signature): + (LOQ ≤ + <5%)
SD: sedative hypnotic (probability of activity signature): + (LOQ ≤ + <5%)
UN: uncharacterized CNS activity (probability of activity signature): +++ (25% ≤ +++ <50%)

CCC[C@H]1OCc2ccccc2[C@@H]1N (single isomer, unassigned) [Example 251]
minimal effective dose [2]: 3 to 10 mg/kg
AD: ADHD (probability of activity signature): ++ (5% ≤ ++ <25%)
AG: analgesic (probability of activity signature): + (LOQ ≤ + <5%)
AX: anxiolytic (probability of activity signature): ++ (5% ≤ ++ <25%)
CE: cognitive enhancer (probability of activity signature): + (LOQ ≤ + <5%)
DP: anti-depressant (probability of activity signature): + (LOQ ≤ + <5%)
MS: mood stabilizer (probability of activity signature): ++ (5% ≤ ++ <25%)
PS: anti-psychotic (probability of activity signature): ++ (5% ≤ ++ <25%)
SD: sedative hypnotic (probability of activity signature): ++ (5% ≤ ++ <25%)
UN: uncharacterized CNS activity (probability of activity signature): ++ (5% ≤ ++ <25%)

CN[C@H]1COCc2ccc(C)cc21 [Example 142]
minimal effective dose [1]: 3 to 10 mg/kg
AD: ADHD (probability of activity signature): + (LOQ ≤ + <5%)
AG: analgesic (probability of activity signature): ++ (5% ≤ ++ <25%)
AX: anxiolytic (probability of activity signature): ++ (5% ≤ ++ <25%)
CE: cognitive enhancer (probability of activity signature): ++ (5% ≤ ++ <25%)
DP: anti-depressant (probability of activity signature): ++ (5% ≤ ++ <25%)
MS: mood stabilizer (probability of activity signature): + (LOQ ≤ + <5%)
PS: anti-psychotic (probability of activity signature): + (LOQ ≤ + <5%)
SD: sedative hypnotic (probability of activity signature): + (LOQ ≤ + <5%)
UN: uncharacterized CNS activity (probability of activity signature): ++++ (50% ≤ ++++)

C[C@@H]1OCc2ccc(F)cc2[C@H]1N [Example 184]
Potency: minimal effective dose (MED), binned (MED = dose having 50% or more total activity): A (≤3 mpk)
AD: ADHD (probability of activity signature): + (LOQ ≤ + <5%)
AG: analgesic (probability of activity signature): + (LOQ ≤ + <5%)
AX: anxiolytic (probability of activity signature): ++ (5% ≤ ++ <25%)
CE: cognitive enhancer (probability of activity signature): ++ (5% ≤ ++ <25%)
DP: anti-depressant (probability of activity signature): ++ (5% ≤ ++ <25%)
MS: mood stabilizer (probability of activity signature): + (LOQ ≤ + <5%)
PS: anti-psychotic (probability of activity signature): ++ (5% ≤ ++ <25%)
SD: sedative hypnotic (probability of activity signature): + (LOQ ≤ + <5%)
UN: uncharacterized CNS activity (probability of activity signature): ++++ (50% ≤ ++++)

C[C@H]1OCc2c(F)cccc2[C@@H]1N.Cl [Example 214]
minimal effective dose [2]: 3 to 10 mg/kg
AD: ADHD (probability of activity signature): ++ (5% ≤ ++ <25%)
AG: analgesic (probability of activity signature): ++ (5% ≤ ++ <25%)
AX: anxiolytic (probability of activity signature): ++ (5% ≤ ++ <25%)
CE: cognitive enhancer (probability of activity signature): ++ (5% ≤ ++ <25%)
DP: anti-depressant (probability of activity signature): ++ (5% ≤ ++ <25%)
MS: mood stabilizer (probability of activity signature): + (LOQ ≤ + <5%)
PS: anti-psychotic (probability of activity signature): ++ (5% ≤ ++ <25%)
SD: sedative hypnotic (probability of activity signature): ++ (5% ≤ ++ <25%)
UN: uncharacterized CNS activity (probability of activity signature): ++++ (50% ≤ ++++)

Cc1ccc2c(c1)[C@H](C)OC[C@H]2N [Example 222]
minimal effective dose [2]: 3 to 10 mg/kg
AD: ADHD (probability of activity signature): + (LOQ ≤ + <5%)
AG: analgesic (probability of activity signature): + (LOQ ≤ + <5%)
AX: anxiolytic (probability of activity signature): ++ (5% ≤ ++ <25%)
CE: cognitive enhancer (probability of activity signature): + (LOQ ≤ + <5%)
DP: anti-depressant (probability of activity signature): + (LOQ ≤ + <5%)
MS: mood stabilizer (probability of activity signature): + (LOQ ≤ + <5%)
PS: anti-psychotic (probability of activity signature): + (LOQ ≤ + <5%)
SD: sedative hypnotic (probability of activity signature): + (LOQ ≤ + <5%)
UN: uncharacterized CNS activity (probability of activity signature): ++++ (50% ≤ ++++)

CCN(C)C(=O)Oc1ccc2c(c1)[C@H](N(C)C)[C@H](C)OC2.Cl [Example 287]
minimal effective dose [2]: > 30 mg/kg
AD: ADHD (probability of activity signature): + (LOQ ≤ + <5%)
AG: analgesic (probability of activity signature): + (LOQ ≤ + <5%)
AX: anxiolytic (probability of activity signature): + (LOQ ≤ + <5%)
CE: cognitive enhancer (probability of activity signature): + (LOQ ≤ + <5%)
DP: anti-depressant (probability of activity signature): + (LOQ ≤ + <5%)
MS: mood stabilizer (probability of activity signature): + (LOQ ≤ + <5%)
PS: anti-psychotic (probability of activity signature): + (LOQ ≤ + <5%)
SD: sedative hypnotic (probability of activity signature): ++ (5% ≤ ++ <25%)
UN: uncharacterized CNS activity (probability of activity signature): + (LOQ ≤ + <5%)

Cl.NC1CCOCc2cc(Cl)ccc21 (stereo not shown) [Example 38]
minimal effective dose [1]: 10 to 30 mg/kg
AD: ADHD (probability of activity signature): + (LOQ ≤ + <5%)
AG: analgesic (probability of activity signature): ++ (5% ≤ ++ <25%)
AX: anxiolytic (probability of activity signature): ++ (5% ≤ ++ <25%)
CE: cognitive enhancer (probability of activity signature): + (LOQ ≤ + <5%)
DP: anti-depressant (probability of activity signature): ++ (5% ≤ ++ <25%)
MS: mood stabilizer (probability of activity signature): + (LOQ ≤ + <5%)
PS: anti-psychotic (probability of activity signature): ++ (5% ≤ ++ <25%)
SD: sedative hypnotic (probability of activity signature): + (LOQ ≤ + <5%)
UN: uncharacterized CNS activity (probability of activity signature): +++ (25% ≤ +++ <50%)

Cl.NC1COCc2ccc3ccccc3c21 (stereo not shown) [Example 13]
minimal effective dose [1]: 3 to 10 mg/kg
AD: ADHD (probability of activity signature): + (LOQ ≤ + <5%)
AG: analgesic (probability of activity signature): ++ (5% ≤ ++ <25%)
AX: anxiolytic (probability of activity signature): ++ (5% ≤ ++ <25%)
CE: cognitive enhancer (probability of activity signature): ++ (5% ≤ ++ <25%)
DP: anti-depressant (probability of activity signature): ++ (5% ≤ ++ <25%)
MS: mood stabilizer (probability of activity signature): + (LOQ ≤ + <5%)
PS: anti-psychotic (probability of activity signature): ++ (5% ≤ ++ <25%)
SD: sedative hypnotic (probability of activity signature): + (LOQ ≤ + <5%)
UN: uncharacterized CNS activity (probability of activity signature): ++++ (50% ≤ ++++)

Cc1ccc2c(c1C)C(NC(C)C)COC2.Cl (stereo not shown) [Example 55]
minimal effective dose [1]: 3 to 10 mg/kg
AD: ADHD (probability of activity signature): + (LOQ ≤ + <5%)
AG: analgesic (probability of activity signature): ++ (5% ≤ ++ <25%)
AX: anxiolytic (probability of activity signature): ++ (5% ≤ ++ <25%)
CE: cognitive enhancer (probability of activity signature): ++ (5% ≤ ++ <25%)
DP: anti-depressant (probability of activity signature): + (LOQ ≤ + <5%)
MS: mood stabilizer (probability of activity signature): + (LOQ ≤ + <5%)
PS: anti-psychotic (probability of activity signature): ++ (5% ≤ ++ <25%)
SD: sedative hypnotic (probability of activity signature): + (LOQ ≤ + <5%)
UN: uncharacterized CNS activity (probability of activity signature): +++ (25% ≤ +++ <50%)
